Patent US7432257B2, “Piperdinyl-phenoxazine and phenothiazine derivatives as δ-opioid modulators” (Janssen Pharmaceutica N.V., priority 2005, dated 2008)

Experiments:
[1] = molecular target: T1, delta opioid receptor (Rattus norvegicus, UniProt P33533); assay: Rat Brain Delta Opioid Receptor Binding Assay; conditions: rat forebrain membranes; [3H]DPDPE or [3H]naltrindole, 25° C., 2.5 h
T1 construct: from tissue; host or cells: Forebrain of male Wistar rats, particulate membrane preparation

[2] = molecular target: T2, mu opioid receptor (Rattus norvegicus, UniProt P33535); assay: Rat Brain Mu Opioid Receptor Binding Assay; conditions: rat forebrain membranes; [3H]DAMGO, 25° C., 2.5 h
T2 construct: from tissue; host or cells: Forebrain of male Wistar rats, particulate membrane preparation

[3] = molecular target: T3, delta opioid receptor (NG108-15 cell membranes) (Mus musculus, UniProt P32300); assay: [35S]GTPγS Binding Assay in NG108-15 Cell Membranes (Delta Opioid); assay type: biochemical
T3 construct: NG108-15 cell membranes were purchased from Applied Cell Sciences (Rockville, Md.); host or cells: NG108-15 cell membranes (purchased)

[4] = molecular target: hMOR (CHO-hMOR cell membranes) (Homo sapiens, UniProt P35372); assay: [35S]GTPγS Binding Assays in CHO-hMOR Cell Membranes; assay type: biochemical; conditions: read-out: mu GTPγS EC50
Chain of hMOR (CHO-hMOR cell membranes) (P35372 whole entry): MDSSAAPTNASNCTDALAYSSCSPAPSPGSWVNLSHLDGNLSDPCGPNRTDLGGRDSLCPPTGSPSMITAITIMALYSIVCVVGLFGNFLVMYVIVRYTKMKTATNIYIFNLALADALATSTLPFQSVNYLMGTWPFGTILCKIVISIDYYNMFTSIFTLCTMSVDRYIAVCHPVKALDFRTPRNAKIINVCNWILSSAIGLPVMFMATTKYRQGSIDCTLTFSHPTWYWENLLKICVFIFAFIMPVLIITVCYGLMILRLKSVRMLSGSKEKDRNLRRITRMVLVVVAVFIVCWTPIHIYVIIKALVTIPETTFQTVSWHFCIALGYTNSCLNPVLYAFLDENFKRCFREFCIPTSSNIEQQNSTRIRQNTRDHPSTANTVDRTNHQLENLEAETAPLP

T1 sequence (P33533 whole entry): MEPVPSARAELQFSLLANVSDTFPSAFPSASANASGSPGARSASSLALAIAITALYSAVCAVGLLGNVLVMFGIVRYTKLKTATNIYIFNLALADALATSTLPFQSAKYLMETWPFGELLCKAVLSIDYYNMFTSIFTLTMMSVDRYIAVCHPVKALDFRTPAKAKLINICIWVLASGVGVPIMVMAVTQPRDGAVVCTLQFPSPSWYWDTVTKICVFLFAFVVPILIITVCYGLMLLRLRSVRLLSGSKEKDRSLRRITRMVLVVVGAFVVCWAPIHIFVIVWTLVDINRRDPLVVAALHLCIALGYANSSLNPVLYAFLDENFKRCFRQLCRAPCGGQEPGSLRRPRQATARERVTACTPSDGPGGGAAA
T2 sequence (P33535 whole entry): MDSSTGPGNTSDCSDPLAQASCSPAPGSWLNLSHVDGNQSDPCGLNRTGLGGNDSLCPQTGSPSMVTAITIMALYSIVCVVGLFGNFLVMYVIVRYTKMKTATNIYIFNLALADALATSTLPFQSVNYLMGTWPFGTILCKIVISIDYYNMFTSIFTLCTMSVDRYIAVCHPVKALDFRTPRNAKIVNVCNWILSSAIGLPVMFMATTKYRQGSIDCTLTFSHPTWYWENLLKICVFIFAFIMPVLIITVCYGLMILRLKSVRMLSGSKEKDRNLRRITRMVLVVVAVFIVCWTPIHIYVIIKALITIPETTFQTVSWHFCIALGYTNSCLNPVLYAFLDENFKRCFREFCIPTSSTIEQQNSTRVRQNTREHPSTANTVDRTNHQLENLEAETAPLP
T3 sequence (P32300 whole entry): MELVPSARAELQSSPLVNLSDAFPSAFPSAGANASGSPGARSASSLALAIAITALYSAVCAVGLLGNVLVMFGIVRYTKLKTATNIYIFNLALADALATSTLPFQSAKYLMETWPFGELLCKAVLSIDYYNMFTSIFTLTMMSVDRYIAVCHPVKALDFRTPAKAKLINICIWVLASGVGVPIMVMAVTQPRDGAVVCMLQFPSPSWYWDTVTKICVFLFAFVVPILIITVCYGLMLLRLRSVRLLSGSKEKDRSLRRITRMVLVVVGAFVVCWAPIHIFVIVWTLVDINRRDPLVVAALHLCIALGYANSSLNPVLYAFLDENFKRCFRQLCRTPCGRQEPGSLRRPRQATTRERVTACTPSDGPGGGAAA

SMILES	Ki [1]	Ki [2]	EC50 [3]	EC50 [4]
O=C(c1ccc2c(c1)Oc1ccccc1N2C1CCN(Cc2ccccn2)CC1)N1CC[C@H](O)C1 [Compound 15r, (3-(S)-Hydroxypyrrolidin-1-yl)-[10-(1-pyridin-2-ylmethyl-piperidin-4-yl)-10H-phenoxazin-3-yl]-methanone]	203 nM	–	–	–
c1ccc(CN2CCC(N3c4ccccc4Sc4cc(-c5cccnc5)ccc43)CC2)nc1 [Compound 2f, 3-Pyridin-3-yl-10-(1-pyridin-2-ylmethyl-piperidin-4-yl)-10H-phenothiazine]	365 nM	2850 nM	–	–
c1ccc(CN2CCC(N3c4ccccc4Oc4cc(-c5nnn[nH]5)ccc43)CC2)nc1 [Compound 10a, 10-(1-Pyridin-2-ylmethyl-piperidin-4-yl)-3-(1H-tetrazol-5-yl)-10H-phenoxazine]	227 nM	–	–	–
NC(=O)c1ccc2c(c1)Oc1ccccc1N2C1CCNCC1 [Compound 12a, 10-Piperidin-4-yl-10H-phenoxazine-3-carboxylic Acid amide]	682 nM	1240 nM	9250 nM	> 10000 nM
CCN(CC)C(=O)c1ccc2c(c1)Oc1ccccc1N2C1CCN(Cc2nccs2)CC1 [Compound 9r, 10-(1-Thiazol-2-ylmethyl-piperidin-4-yl)-10H-phenoxazine-3-carboxylic acid diethylamide]	300 nM	–	–	–
CC(=O)Nc1ccccc1-c1ccc2c(c1)Oc1ccccc1N2C1CCN(Cc2ccoc2)CC1 [Compound 3j, N-{2-[10-(1-Furan-3-ylmethyl-piperidin-4-yl)-10H-phenoxazin-3-yl]-phenyl}-acetamide]	2280 nM	–	–	–
c1ccc2c(c1)Oc1cc(-c3nnn[nH]3)ccc1N2C1CCN(Cc2ncc[nH]2)CC1 [Compound 7a, 10-[1-(1H-Imidazol-2-ylmethyl)-piperidin-4-yl]-3-(1H-tetrazol-5-yl)-10H-phenoxazine]	655 nM	2770 nM	–	–
CCN(CC)C(=O)c1ccc2c(c1)Oc1ccccc1N2C1CCN(Cc2ccoc2)CC1 [Compound 10r, 10-(1-Furan-3-ylmethyl-piperidin-4-yl)-10H-phenoxazine-3-carboxylic acid diethylamide]	655 nM	–	–	–
Oc1cccc2c1Oc1cc(-c3ccncc3)ccc1N2C1CCNCC1 (single isomer, unassigned) [Compound 4p, 10-Piperidin-4-yl-7-pyridin-4-yl-10H-phenoxazin-4-ol]	535 nM	–	–	–
CC(=O)Nc1ccccc1-c1ccc2c(c1)Sc1ccccc1N2C1CCN(Cc2ccccn2)CC1 [Compound 6g, N-{2-[10-(1-Pyridin-2-ylmethyl-piperidin-4-yl)-10H-phenothiazin-3-yl]-phenyl}-acetamide]	255 nM	837 nM	–	–
c1ccc(CN2CCC(N3c4ccccc4Oc4cc(-c5ccncc5)ccc43)CC2)nc1 [Compound 5k, 3-Pyridin-4-yl-10-(1-pyridin-2-ylmethyl-piperidin-4-yl)-10H-phenoxazine]	1200 nM	–	–	–
CCNC(=O)c1ccc2c(c1)Sc1ccccc1N2C1CCN(Cc2cccs2)CC1 [Compound 4m, 10-(1-Thiophen-2-ylmethyl-piperidin-4-yl)-10H-phenothiazine-3-carboxylic acid ethylamide]	784 nM	–	–	–
O=C(c1ccc2c(c1)Oc1ccccc1N2C1CCN(Cc2ccccc2)CC1)N1CC[C@H](O)C1 [Compound 13r, [10-(1-Benzyl-piperidin-4-yl)-10H-phenoxazin-3-yl]-(3-(S)-Hydroxypyrrolidin-1-yl)-methanone]	465 nM	–	–	–
N#Cc1ccc2c(c1)Oc1ccccc1N2C1CCNCC1 [Compound 11a, 10-Piperidin-4-yl-10H-phenoxazine-3-carbonitrile]	436 nM	5820 nM	1930 nM	> 10000 nM
COc1cccc2c1Oc1cc(-c3ccncc3)ccc1N2C1CCNCC1 (single isomer, unassigned) [Compound 5p, 6-Methoxy-10-piperidin-4-yl-3-pyridin-4-yl-10H-phenoxazine]	589 nM	–	–	–
CC(=O)Nc1ccccc1-c1ccc2c(c1)Oc1ccccc1N2C1CCN(Cc2ncc[nH]2)CC1 [Compound 7j, N-(2-{10-[1-(1H-Imidazol-2-ylmethyl)-piperidin-4-yl]-10H-phenoxazin-3-yl}-phenyl)-acetamide]	249 nM	–	–	–
O=C(c1ccc2c(c1)Oc1ccccc1N2C1CCN(Cc2ccoc2)CC1)N1CC[C@H](O)C1 [Compound 16r, [10-(1-Furan-3-ylmethyl-piperidin-4-yl)-10H-phenoxazin-3-yl]-(3-(S)-Hydroxypyrrolidin-1-yl)-methanone]	189 nM	–	–	–
COc1cccc2c1Oc1cc(C(=O)N(C)C)ccc1N2C1CCN(Cc2ccccc2)CC1 [Compound 5d, 10-(1-Benzyl-piperidin-4-yl)-6-methoxy-10H-phenoxazine-3-carboxylic acid dimethylamide]	374 nM	–	–	–
CC(=O)Nc1ccccc1-c1ccc2c(c1)Oc1ccccc1N2C1CCN(Cc2ccccn2)CC1 [Compound 5j, N-{2-[10-(1-Pyridin-2-ylmethyl-piperidin-4-yl)-10H-phenoxazin-3-yl]-phenyl}-acetamide]	576 nM	–	–	–
CC(=O)Nc1ccccc1-c1ccc2c(c1)Oc1ccccc1N2C1CCN(Cc2ccccc2)CC1 [Compound 5h, N-{2-[10-(1-Benzyl-piperidin-4-yl)-10H-phenoxazin-3-yl]-phenyl}-acetamide]	400 nM	3320 nM	–	–
